PubChem BioAssay (NCI)
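Briefly, cells in 96-well plates were exposed to five compound concentrations for 48 h, and endpoints were estimated by linear interpolation. Here, GI50 denotes the concentration required for 50% inhibition of growth. TGI: total growth inhibition.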

Key:
Assay in all cases: NCI-60 cell line screen, 48 h
786-0 renal = tested on: 786-0 renal
A498 renal = tested on: A498 renal
A549 NSCLC = tested on: A549 NSCLC
ACHN renal = tested on: ACHN renal
BT-549 breast = tested on: BT-549 breast
CAKI-1 renal = tested on: CAKI-1 renal
CCRF-CEM leukemia = tested on: CCRF-CEM leukemia
COLO 205 colon = tested on: COLO 205 colon
DU-145 prostate = tested on: DU-145 prostate
EKVX NSCLC = tested on: EKVX NSCLC
HCC-2998 colon = tested on: HCC-2998 colon
HCT-116 colon = tested on: HCT-116 colon
HCT-15 colon = tested on: HCT-15 colon
HL-60(TB) leukemia = tested on: HL-60(TB) leukemia
HOP-62 NSCLC = tested on: HOP-62 NSCLC
HOP-92 NSCLC = tested on: HOP-92 NSCLC
HS 578T breast = tested on: HS 578T breast
HT29 colon = tested on: HT29 colon
IGROV1 ovarian = tested on: IGROV1 ovarian
K-562 leukemia = tested on: K-562 leukemia
KM12 colon = tested on: KM12 colon
LOX IMVI melanoma = tested on: LOX IMVI melanoma
M14 melanoma = tested on: M14 melanoma
MALME-3M melanoma = tested on: MALME-3M melanoma
MCF7 breast = tested on: MCF7 breast
MDA-MB-231 breast = tested on: MDA-MB-231 breast
MDA-MB-435 = tested on: MDA-MB-435
MOLT-4 leukemia = tested on: MOLT-4 leukemia
NCI-H226 lung = tested on: NCI-H226 lung
NCI-H23 lung = tested on: NCI-H23 lung
NCI-H460 lung = tested on: NCI-H460 lung
NCI-H522 lung = tested on: NCI-H522 lung
NCI/ADR-RES ovarian = tested on: NCI/ADR-RES ovarian
OVCAR-3 ovarian = tested on: OVCAR-3 ovarian
OVCAR-4 ovarian = tested on: OVCAR-4 ovarian
OVCAR-5 ovarian = tested on: OVCAR-5 ovarian
OVCAR-8 ovarian = tested on: OVCAR-8 ovarian
PC-3 prostate = tested on: PC-3 prostate
RPMI-8226 leukemia = tested on: RPMI-8226 leukemia
RXF 393 renal = tested on: RXF 393 renal
SF-268 CNS = tested on: SF-268 CNS
SF-295 CNS = tested on: SF-295 CNS
SF-539 CNS = tested on: SF-539 CNS
SK-MEL-2 melanoma = tested on: SK-MEL-2 melanoma
SK-MEL-28 melanoma = tested on: SK-MEL-28 melanoma
SK-MEL-5 melanoma = tested on: SK-MEL-5 melanoma
SK-OV-3 ovarian = tested on: SK-OV-3 ovarian
SN12C renal = tested on: SN12C renal
SNB-19 CNS = tested on: SNB-19 CNS
SNB-75 CNS = tested on: SNB-75 CNS
SR leukemia = tested on: SR leukemia
SW-620 colon = tested on: SW-620 colon
T-47D breast = tested on: T-47D breast
TK-10 renal = tested on: TK-10 renal
U251 CNS = tested on: U251 CNS
UACC-257 melanoma = tested on: UACC-257 melanoma
UACC-62 melanoma = tested on: UACC-62 melanoma
UO-31 renal = tested on: UO-31 renal

`COc1cnc2c(c1)C(=O)c1c-2n(CCCNCC2CC2)c(=O)c2cc(F)ccc12` gave a GI50 (786-0 renal) of 386 nM, a TGI (786-0 renal) of 1380 nM and a GI50 (A498 renal) of 969 nM. For the same compound, the TGI (A498 renal) was 4.11 µM, the GI50 (A549 NSCLC) was 262 nM and the TGI (A549 NSCLC) was 1550 nM. The GI50 (ACHN renal) was 191 nM, the TGI (ACHN renal) was 717 nM and the GI50 (BT-549 breast) was 1110 nM. It also gave a TGI (BT-549 breast) of 3.88 µM, a GI50 (CAKI-1 renal) of 216 nM and a TGI (CAKI-1 renal) of 1830 nM. For the same compound, the GI50 (CCRF-CEM leukemia) was 190 nM, the TGI (CCRF-CEM leukemia) was 4.61 µM and the GI50 (COLO 205 colon) was 570 nM. It also gave a TGI (COLO 205 colon) of 3.48 µM, a GI50 (DU-145 prostate) of 475 nM and a TGI (DU-145 prostate) of 2440 nM. The GI50 (EKVX NSCLC) was 1510 nM, the TGI (EKVX NSCLC) was 5.64 µM and the GI50 (HCC-2998 colon) was 715 nM. It also gave a TGI (HCC-2998 colon) of 2580 nM, a GI50 (HCT-116 colon) of 284 nM and a TGI (HCT-116 colon) of 1400 nM. For the same compound, the GI50 (HCT-15 colon) was 402 nM, the TGI (HCT-15 colon) was 1810 nM and the GI50 (HL-60(TB) leukemia) was 199 nM. It also gave a TGI (HL-60(TB) leukemia) of 1680 nM, a GI50 (HOP-62 NSCLC) of 380 nM and a TGI (HOP-62 NSCLC) of 2150 nM. The GI50 (HOP-92 NSCLC) was 1750 nM, the TGI (HOP-92 NSCLC) was 7.36 µM and the GI50 (HS 578T breast) was 2490 nM. For the same compound, the TGI (HS 578T breast) was 13.9 µM, the GI50 (HT29 colon) was 495 nM and the TGI (HT29 colon) was 2100 nM. The GI50 (IGROV1 ovarian) was 641 nM, the TGI (IGROV1 ovarian) was 4.33 µM and the GI50 (K-562 leukemia) was 229 nM. For the same compound, the TGI (K-562 leukemia) was 14.5 µM, the GI50 (KM12 colon) was 1400 nM and the TGI (KM12 colon) was 5.73 µM. It also gave a GI50 (LOX IMVI melanoma) of 206 nM, a TGI (LOX IMVI melanoma) of 923 nM and a GI50 (M14 melanoma) of 736 nM. The TGI (M14 melanoma) was 3.08 µM, the GI50 (MALME-3M melanoma) was 1030 nM and the TGI (MALME-3M melanoma) was 3.15 µM. For the same compound, the GI50 (MCF7 breast) was 76.6 nM, the TGI (MCF7 breast) was 1350 nM and the GI50 (MDA-MB-231 breast) was 943 nM. The TGI (MDA-MB-231 breast) was 3.44 µM, the GI50 (MDA-MB-435) was 1210 nM and the TGI (MDA-MB-435) was 3.98 µM. The GI50 (MOLT-4 leukemia) was 77.1 nM, the TGI (MOLT-4 leukemia) was 8.9 µM and the GI50 (NCI-H226 lung) was 751 nM. The TGI (NCI-H226 lung) was 2020 nM, the GI50 (NCI-H23 lung) was 577 nM and the TGI (NCI-H23 lung) was 1950 nM. The GI50 (NCI-H460 lung) was 104 nM, the TGI (NCI-H460 lung) was 800 nM and the GI50 (NCI-H522 lung) was 275 nM. For the same compound, the TGI (NCI-H522 lung) was 1740 nM, the GI50 (NCI/ADR-RES ovarian) was 609 nM and the TGI (NCI/ADR-RES ovarian) was 3.52 µM. It also gave a GI50 (OVCAR-3 ovarian) of 1110 nM, a TGI (OVCAR-3 ovarian) of 3.8 µM and a GI50 (OVCAR-4 ovarian) of 1590 nM. For the same compound, the TGI (OVCAR-4 ovarian) was 3.67 µM, the GI50 (OVCAR-5 ovarian) was 1020 nM and the TGI (OVCAR-5 ovarian) was 3.07 µM. It also gave a GI50 (OVCAR-8 ovarian) of 801 nM, a TGI (OVCAR-8 ovarian) of 3.83 µM and a GI50 (PC-3 prostate) of 760 nM. For the same compound, the TGI (PC-3 prostate) was 4.93 µM, the GI50 (RPMI-8226 leukemia) was 474 nM and the TGI (RPMI-8226 leukemia) was 2870 nM. It also gave a GI50 (RXF 393 renal) of 855 nM, a TGI (RXF 393 renal) of 2590 nM and a GI50 (SF-268 CNS) of 1060 nM. The TGI (SF-268 CNS) was 8 µM, the GI50 (SF-295 CNS) was 295 nM and the TGI (SF-295 CNS) was 1680 nM. For the same compound, the GI50 (SF-539 CNS) was 581 nM, the TGI (SF-539 CNS) was 1920 nM and the GI50 (SK-MEL-2 melanoma) was 3.68 µM. For the same compound, the TGI (SK-MEL-2 melanoma) was 8.4 µM, the GI50 (SK-MEL-28 melanoma) was 1820 nM and the TGI (SK-MEL-28 melanoma) was 4.57 µM. The GI50 (SK-MEL-5 melanoma) was 1140 nM, the TGI (SK-MEL-5 melanoma) was 2650 nM and the GI50 (SK-OV-3 ovarian) was 939 nM. It also gave a TGI (SK-OV-3 ovarian) of 2580 nM, a GI50 (SN12C renal) of 297 nM and a TGI (SN12C renal) of 2690 nM. The GI50 (SNB-19 CNS) was 453 nM, the TGI (SNB-19 CNS) was 3.89 µM and the GI50 (SNB-75 CNS) was 480 nM. The TGI (SNB-75 CNS) was 3.3 µM, the GI50 (SR leukemia) was 117 nM and the TGI (SR leukemia) was 1790 nM. The GI50 (SW-620 colon) was 227 nM, the TGI (SW-620 colon) was 1860 nM and the GI50 (T-47D breast) was 488 nM. For the same compound, the TGI (T-47D breast) was 3.1 µM, the GI50 (TK-10 renal) was 1560 nM and the TGI (TK-10 renal) was 4.66 µM. For the same compound, the GI50 (U251 CNS) was 346 nM, the TGI (U251 CNS) was 2360 nM and the GI50 (UACC-257 melanoma) was 1780 nM. It also gave a TGI (UACC-257 melanoma) of 5.24 µM, a GI50 (UACC-62 melanoma) of 561 nM and a TGI (UACC-62 melanoma) of 2260 nM. It also gave a GI50 (UO-31 renal) of 304 nM and a TGI (UO-31 renal) of 1590 nM.
